The source of these data is ChEMBL document CHEMBL1944550, “In vitro and in silico studies on substrate recognition and acceptance of human PKMYT1, a Cdk1 inhibitory kinase” (Bioorg Med Chem Lett, 2012).

Experiment [1] concerns the target T1, Membrane-associated tyrosine- and threonine-specific cdc2-inhibitory kinase (Homo sapiens) (UniProt Q99640).
T1 sequence (whole entry): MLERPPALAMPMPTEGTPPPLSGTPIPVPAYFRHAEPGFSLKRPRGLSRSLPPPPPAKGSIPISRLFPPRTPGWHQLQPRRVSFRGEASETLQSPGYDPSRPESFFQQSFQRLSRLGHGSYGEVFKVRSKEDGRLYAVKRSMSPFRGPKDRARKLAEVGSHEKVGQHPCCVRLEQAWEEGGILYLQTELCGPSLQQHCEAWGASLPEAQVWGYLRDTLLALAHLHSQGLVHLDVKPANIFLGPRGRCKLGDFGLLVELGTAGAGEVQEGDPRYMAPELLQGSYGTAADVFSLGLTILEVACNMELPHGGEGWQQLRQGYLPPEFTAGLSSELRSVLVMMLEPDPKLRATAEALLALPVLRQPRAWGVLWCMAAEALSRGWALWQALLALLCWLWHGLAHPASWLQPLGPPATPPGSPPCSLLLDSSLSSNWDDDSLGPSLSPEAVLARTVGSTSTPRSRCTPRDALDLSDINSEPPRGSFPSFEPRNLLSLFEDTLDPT
Briefly: Activity at full length human Myt1 expressed in human HEK293 cells assessed as Cdk1 phosphorylation at Try15 at 10 uM after 30 mins by fluorescence polarization immunoassay. On the technique in general: In fluorescence polarisation assays a small probe gives low polarisation when free and higher when bound to something large.

The target in experiment [2] is T1, Membrane-associated tyrosine- and threonine-specific cdc2-inhibitory kinase (Homo sapiens). Briefly: Activity at full length human Myt1 expressed in human HEK293 cells assessed as Cdk1 phosphorylation at Thr14 at 10 uM after 30 mins by fluorescence polarization immunoassay.
For experiment [3] the target is unchanged. Briefly: Activity at human Myt1 (75 to 362) expressed in Escherichia coli BL21 (DE3) cells assessed as Cdk1 phosphorylation at Try15 at 10 uM after 30 mins by fluorescence polarization immunoassay.
Experiment [4] shares this target. The experiment can be described thus: Activity at human Myt1 (75 to 362) expressed in Escherichia coli BL21 (DE3) cells assessed as Cdk1 phosphorylation at Thr14 at 10 uM after 30 mins by fluorescence polarization immunoassay.
The target of experiment [5] is T2, Membrane-associated tyrosine- and threonine-specific cdc2-inhibitory kinase (Homo sapiens, UniProt Q99640).
T2 sequence (Q99640 whole entry): T1 sequence (whole entry)
Briefly: Competitive inhibition of human Myt1 by TR-FRET assay. (In TR-FRET formats the signal depends on donor and acceptor labels being close together.)

For experiment [6], the target named is T2, Membrane-associated tyrosine- and threonine-specific cdc2-inhibitory kinase. The experiment can be described thus: Activity at full length human Myt1 expressed in human HEK293 cells at 10 uM after 30 mins by fluorescence polarization immunoassay.

Active and inactive are the calls of the source. The rule behind the calls is not given here. Residues, ends and D or L forms follow the SMILES beside them.

As to H-EKIGEGTYGVVYKC-OH, the outcome in experiment [1], in experiment [2], in experiment [3] and in experiment [4] was inactive.
On to `CC[C@H](C)[C@H](NC(=O)[C@H](CCCCN)NC(=O)[C@@H](N)CCC(N)=O)C(=O)NCC(=O)N[C@@H](CCC(=O)O)C(=O)NCC(=O)N[C@H](C(=O)N[C@@H](Cc1ccc(OP(=O)(O)O)cc1)C(=O)NCC(=O)N[C@H](C(=O)N[C@H](C(=O)N[C@@H](Cc1ccc(O)cc1)C(=O)N[C@@H](CCCCN)C(=O)N[C@@H](CS)C(=O)O)C(C)C)C(C)C)[C@@H](C)OP(=O)(O)O` (HELM PEPTIDE1{Q.K.I.G.E.G.[C[C@@H](OP(=O)(O)O)[C@H](N[*:1])C(=O)[*:2]].[O=C([C@H](Cc1ccc(OP(=O)(O)O)cc1)N[*:1])[*:2]].G.V.V.Y.K.C}$$$$V2.0), for which the outcome in experiment [1], in experiment [2], in experiment [3] and in experiment [4] was inactive.
Turning to `CC[C@H](C)[C@H](NC(=O)[C@H](CCCCN)NC(=O)[C@@H](N)CCC(N)=O)C(=O)NCC(=O)N[C@@H](CCC(=O)O)C(=O)NCC(=O)N[C@H](C(=O)N[C@@H](Cc1ccc(O)cc1)C(=O)NCC(=O)N[C@H](C(=O)N[C@H](C(=O)N[C@@H](Cc1ccc(O)cc1)C(=O)N[C@@H](CCCCN)C(=O)N[C@@H](CS)C(=O)O)C(C)C)C(C)C)[C@@H](C)OP(=O)(O)O` (HELM PEPTIDE1{Q.K.I.G.E.G.[C[C@@H](OP(=O)(O)O)[C@H](N[*:1])C(=O)[*:2]].Y.G.V.V.Y.K.C}$$$$V2.0), the result in experiment [1], in experiment [2], in experiment [3] and in experiment [4] was inactive.
On to H-QKIGEGTYGVVYKC-OH, for which the outcome in experiment [1], in experiment [2], in experiment [3] and in experiment [4] was inactive.
For the molecule `CCN(CC)CCOc1ccc(Nc2ncc3cc(-c4c(Cl)cccc4Cl)c(=O)n(C)c3n2)cc1` [PD-0166285], in experiment [5], the IC50 (usually the point on the concentration scale where inhibition reaches its midpoint) was found to be 7 nM.
Take `CC[C@H](C)[C@H](NC(=O)[C@H](CCCCN)NC(=O)[C@@H](N)CCC(N)=O)C(=O)NCC(=O)N[C@@H](CCC(=O)O)C(=O)NCC(=O)N[C@H](C(=O)N[C@@H](Cc1ccc(OP(=O)(O)O)cc1)C(=O)NCC(=O)N[C@H](C(=O)N[C@H](C(=O)N[C@@H](Cc1ccc(O)cc1)C(=O)N[C@@H](CCCCN)C(=O)N[C@@H](CS)C(=O)O)C(C)C)C(C)C)[C@@H](C)O` (HELM PEPTIDE1{Q.K.I.G.E.G.T.[O=C([C@H](Cc1ccc(OP(=O)(O)O)cc1)N[*:1])[*:2]].G.V.V.Y.K.C}$$$$V2.0): the EC50 (as a rule, the midpoint of the concentration-response curve) in experiment [6] came out at 18 nM. Further, the outcome in experiment [1], in experiment [2], in experiment [3] and in experiment [4] was inactive.
